Assay results reported in ChEMBL document CHEMBL3132764, “-Aminophosphonates as novel anti-leishmanial chemotypes: synthesis, biological evaluation, and CoMFA studies” (Medchemcomm, 2014).
Values belong to the compound of their own block, whether it stands above or below them.

Columns and labels:
[1] = Selectivity index, ratio of CC50 for mouse J774A1 cells to IC50 for promastigote stage of wild type Leishmania donovani MHOM/80/IN/Dd8; format: functional, J774.A1
[2] = Cytotoxicity against mouse J774A1 cells after 48 hrs by MTT assay; format: cell-based, J774.A1
Leishmania donovani = assay: Antileishmanial activity against promastigote stage of wild type Leishmania donovani MHOM/80/IN/Dd8 after 48 hrs by MTT assay; format: functional, organism-based; details: MHOM/80/IN/Dd8, 48 h
[3] = Half life in human; format: ADME, organism-based; details: in vivo

SMILES: COP(=O)(OC)C(C)(Nc1ccccc1)c1ccccc1 (racemic)
Ratio CC50/IC50 [1]: 0.44 | CC50 at 48 h [2]: 6 µM | IC50 (Leishmania donovani; read-out: IC50): 13.5 µM | IC50 (Leishmania donovani; read-out: pIC50 (converted)): 13.5 µM

half-life [3]: 144 h
SMILES: CCCCCCCCCCCCCCCCOP(=O)([O-])OCC[N+](C)(C)C [MILTEFOSINE]

SMILES: COP(=O)(OC)C(Nc1ccccc1)c1cccc(O)c1 (racemic)
CC50 at 48 h [2]: > 100 µM | IC50 (Leishmania donovani; read-out: IC50): > 100 µM

SMILES: COP(=O)(OC)C(Nc1ccccc1)c1ccccc1 (racemic)
Ratio CC50/IC50 [1]: 0.93 | CC50 at 48 h [2]: 12.5 µM | IC50 (Leishmania donovani; read-out: IC50): 13.5 µM | IC50 (Leishmania donovani; read-out: pIC50 (converted)): 13.5 µM

SMILES: COc1ccc(C(Nc2ccccc2)P(=O)(OC)OC)cc1 (racemic)
Ratio CC50/IC50 [1]: 0.22 | CC50 at 48 h [2]: 5.5 µM | IC50 (Leishmania donovani; read-out: IC50): 25 µM | IC50 (Leishmania donovani; read-out: pIC50 (converted)): 25.1 µM

SMILES: COP(=O)(OC)C(Nc1ccccc1)c1cccc2ccccc12 (racemic)
CC50 at 48 h [2]: > 100 µM | IC50 (Leishmania donovani; read-out: IC50): 56 µM | IC50 (Leishmania donovani; read-out: pIC50 (converted)): 56.2 µM

SMILES: COP(=O)(OC)C(/C=C/c1ccccc1)Nc1ccccc1 (racemic)
Ratio CC50/IC50 [1]: 0.46 | CC50 at 48 h [2]: 8 µM | IC50 (Leishmania donovani; read-out: IC50): 17.5 µM | IC50 (Leishmania donovani; read-out: pIC50 (converted)): 17.4 µM

SMILES: COP(=O)(OC)C(Nc1cc(C)on1)c1ccccc1 (racemic)
IC50 (Leishmania donovani; read-out: IC50): 30 µM | IC50 (Leishmania donovani; read-out: pIC50 (converted)): 30.2 µM

SMILES: C[C@@H]1[C@H](O)[C@@H](C)/C=C/C=C/C=C/C=C/C=C/C=C/C=C/[C@H](O[C@@H]2O[C@H](C)[C@@H](O)[C@H](N)[C@@H]2O)C[C@@H]2O[C@](O)(C[C@@H](O)C[C@@H](O)[C@H](O)CC[C@@H](O)C[C@@H](O)CC(=O)O[C@H]1C)C[C@H](O)[C@H]2C(=O)O [AMPHOTERICIN B]
Ratio CC50/IC50 [1]: 17.28 | CC50 at 48 h [2]: 7 µM | IC50 (Leishmania donovani; read-out: IC50): 0.405 µM

SMILES: COc1ccccc1C(Nc1ccccc1)P(=O)(OC)OC (racemic)
Ratio CC50/IC50 [1]: 0.33 | CC50 at 48 h [2]: 6 µM | IC50 (Leishmania donovani; read-out: IC50): 18 µM | IC50 (Leishmania donovani; read-out: pIC50 (converted)): 18.2 µM

SMILES: COP(=O)(OC)C(Nc1ccccc1)c1ccc(Cl)cc1 (racemic)
Ratio CC50/IC50 [1]: 1.08 | CC50 at 48 h [2]: 39 µM | IC50 (Leishmania donovani; read-out: IC50): 36 µM | IC50 (Leishmania donovani; read-out: pIC50 (converted)): 36.3 µM

SMILES: COP(=O)(OC)C1(Nc2ccccc2)CCCCC1
Ratio CC50/IC50 [1]: 0.46 | CC50 at 48 h [2]: 7.5 µM | IC50 (Leishmania donovani; read-out: IC50): 16.4 µM | IC50 (Leishmania donovani; read-out: pIC50 (converted)): 16.2 µM

SMILES: COc1cc(C(Nc2ccccc2)P(=O)(OC)OC)ccc1O (racemic)
Ratio CC50/IC50 [1]: 0.7 | CC50 at 48 h [2]: 5 µM | IC50 (Leishmania donovani; read-out: IC50): 7.1 µM | IC50 (Leishmania donovani; read-out: pIC50 (converted)): 7.08 µM

SMILES: COP(=O)(OC)C(Nc1ccccc1)c1ccccc1F (racemic)
Ratio CC50/IC50 [1]: 0.5 | CC50 at 48 h [2]: 12 µM | IC50 (Leishmania donovani; read-out: IC50): 24 µM | IC50 (Leishmania donovani; read-out: pIC50 (converted)): 24 µM

SMILES: COP(=O)(OC)C(Nc1ccccc1)C1CCCCC1 (racemic)
CC50 at 48 h [2]: 14 µM | IC50 (Leishmania donovani; read-out: IC50): > 100 µM

SMILES: COc1ccc(C(Nc2cc(C)on2)P(=O)(OC)OC)cc1 (racemic)
Ratio CC50/IC50 [1]: 0.94 | CC50 at 48 h [2]: 7.5 µM | IC50 (Leishmania donovani; read-out: IC50): 8 µM | IC50 (Leishmania donovani; read-out: pIC50 (converted)): 7.94 µM

SMILES: COP(=O)(OC)C(Nc1ccccc1)c1ccc(Br)cc1 (racemic)
Ratio CC50/IC50 [1]: 0.17 | CC50 at 48 h [2]: 6.5 µM | IC50 (Leishmania donovani; read-out: IC50): 39 µM | IC50 (Leishmania donovani; read-out: pIC50 (converted)): 38.9 µM

SMILES: COP(=O)(OC)C(Nc1ccccc1)c1ccc(O)cc1 (racemic)
Ratio CC50/IC50 [1]: 0.81 | CC50 at 48 h [2]: 6.5 µM | IC50 (Leishmania donovani; read-out: IC50): 8 µM | IC50 (Leishmania donovani; read-out: pIC50 (converted)): 7.94 µM

SMILES: COP(=O)(OC)C(Nc1ccccc1)c1ccccc1O (racemic)
Ratio CC50/IC50 [1]: 0.56 | CC50 at 48 h [2]: 5 µM | IC50 (Leishmania donovani; read-out: IC50): 8.95 µM | IC50 (Leishmania donovani; read-out: pIC50 (converted)): 8.91 µM

SMILES: COc1cc(C(Nc2ccccc2)P(=O)(OC)OC)cc(OC)c1O (racemic)
Ratio CC50/IC50 [1]: 0.74 | CC50 at 48 h [2]: 10 µM | IC50 (Leishmania donovani; read-out: IC50): 13.5 µM | IC50 (Leishmania donovani; read-out: pIC50 (converted)): 13.5 µM

SMILES: COc1ccc(C(Nc2ccccc2)P(=O)(OC)OC)cc1O (racemic)
Ratio CC50/IC50 [1]: 3.18 | CC50 at 48 h [2]: 31 µM | IC50 (Leishmania donovani; read-out: IC50): 9.75 µM | IC50 (Leishmania donovani; read-out: pIC50 (converted)): 9.77 µM

SMILES: COP(=O)(OC)C(Nc1ccccc1)c1ccc([N+](=O)[O-])cc1 (racemic)
Ratio CC50/IC50 [1]: 0.56 | CC50 at 48 h [2]: 5 µM | IC50 (Leishmania donovani; read-out: IC50): 8.95 µM | IC50 (Leishmania donovani; read-out: pIC50 (converted)): 8.91 µM

SMILES: COP(=O)(OC)C(Nc1ccccc1)c1ccccn1 (racemic)
Ratio CC50/IC50 [1]: 0.06 | CC50 at 48 h [2]: 5 µM | IC50 (Leishmania donovani; read-out: IC50): 90 µM | IC50 (Leishmania donovani; read-out: pIC50 (converted)): 89.1 µM

SMILES: COP(=O)(OC)C(Nc1ccccc1)c1ccccc1Br (racemic)
Ratio CC50/IC50 [1]: 0.24 | CC50 at 48 h [2]: 5.5 µM | IC50 (Leishmania donovani; read-out: IC50): 22.5 µM | IC50 (Leishmania donovani; read-out: pIC50 (converted)): 22.4 µM

SMILES: COc1ccc(C(Nc2nc3c(C)cccc3s2)P(=O)(OC)OC)cc1 (racemic)
Ratio CC50/IC50 [1]: 0.97 | CC50 at 48 h [2]: 8.5 µM | IC50 (Leishmania donovani; read-out: IC50): 8.75 µM | IC50 (Leishmania donovani; read-out: pIC50 (converted)): 8.71 µM

SMILES: COP(=O)(OC)C(Nc1ccccc1)c1ccc2ccccc2c1 (racemic)
Ratio CC50/IC50 [1]: 0.07 | CC50 at 48 h [2]: 6.1 µM | IC50 (Leishmania donovani; read-out: IC50): 91.5 µM | IC50 (Leishmania donovani; read-out: pIC50 (converted)): 91.2 µM

SMILES: COP(=O)(OC)C(Nc1ccccc1)c1ccc(N(C)C)cc1 (racemic)
CC50 at 48 h [2]: 5 µM | IC50 (Leishmania donovani; read-out: IC50): > 100 µM

SMILES: COc1ccc(C(Nc2nc3c(Cl)cccc3s2)P(=O)(OC)OC)cc1 (racemic)
IC50 (Leishmania donovani; read-out: IC50): 22 µM | IC50 (Leishmania donovani; read-out: pIC50 (converted)): 21.9 µM
